According to patent publication USRE36854E, “Vitamin D compounds and method of preparing these compounds” (Duphar International Research B.V., priority 1997, dated 2000):

How the values were obtained:
[1] = system: HL-60 cells / intestinal Ca^2+ transport; assay: Cell differentiation versus calciotropic effect (ratio of HL-60 NBT reduction to intestinal Ca2+ transport); assay type: cell-based, human; conditions: for ratio relative to DHCC: fraction normalised to 1α,25-DHCC = 1.00; for fraction (concentration for 50% NBT reduction in HL-60 cells / concentration for half-maximal increase in intestinal Ca^2+ transport): smaller ratio = higher relative cell differentiating capacity; for selectivity of action / better ratio than 1α,25-DHCC (fold): differentiation versus intestinal Ca transport
Source text: Therefore, it should be very advantageous to develop compounds with a high selectivity of biological action. In other words, compounds in which the ratio between the induction of cell differentiation and calciotropic effects, e.g. the stimulation of intestinal Ca transport, is changed compared to 1α,25-DHCC. The ratio between differentiation-inducing capacity and the stimulation of intestinal Ca transport is defined as the fraction between the concentration at which 50% NBT reduction in HL-60 cells is obtained, and the concentration at which a half-maximal increase in intestinal Ca^2+ transport is reached. The smaller the ratio, the higher the relative cell differentiating capacity.

[2] = system: human leukemic cell line HL-60; assay: HL-60 cell differentiation assay (NBT reduction, non-specific esterase, May-Grunwald Giemsa); assay type: cell-based; conditions: for induction of differentiation and maturation of the HL-60 cells: 10^-12 to 10^-6 M; for induction of differentiation and maturation of the HL-60 cells / differentiation in the cytological test (non-specific esterase and May-Grunwald Giemsa) / NBT-reduction inducing capacity relative to 1α,25-DHCC (fold stronger): HL-60; for concentration range of optimum effect: HL-60, cytological test; for NBT-reduction inducing capacity relative to 1α,25-DHCC (fold stronger): FIGS. 3 and 4
Method: Vitamin D compounds according to the invention are dissolved in ethanol in concentrations ranging from 10^-12 to 10^-6 M and tested for their capacity to induce cell differentiation in a HL-60 assay. In this assay, morphologic and biochemical examination of the human leukemic cell line HL-60 is done, in order to establish whether cell differentiation has taken place.
Differentiation is expressed as the maturation parameters nitroblue tetrazolium (NBT) reduction, non-specific esterase, and as the percentage of mature cells beyond the myelocyte stage which is visible after staining with May-Grunwald Giemsa. After culturing with the known 1α,25-DHCC or with vitamin D compounds of the invention, the percentage of cells containing black formazan deposits is determined. An increase in the percentage of NBT reducing cells indicates an increase in cell differentiation.
Proliferation and vitality of the cell cultures are established by counting the number of cells and by the trypan blue exclusion method.

[3] = system: intestinal cancer cell line Caco-2; assay: Caco-2 assay for intestinal calcium transport (45Ca2+ influx); assay type: cell-based; conditions: for relative increase in Ca^2+ influx (1α,25-DHCC = 100): 10^-9 M
Method: The most well-known effect of 1α,25-DHCC is its action on the calcium metabolism, the calciotropic effect. Calciotropic target organs are the intestine, the bone and the kidney. The vitamin D compounds according to the invention are dissolved in ethanol and tested in the so-called Caco-2 assay for intestinal calcium (Ca) transport. In this assay, the vitamin D-induced influx of ^45 Ca^2+ is measured in monolayers of the intestinal cancer cell line Caco-2. This influx is corrected for the concentration-driven Ca^2+ influx and is a measure for the Ca transport across the intestinal wall. The Caco-2 cells are known to have vitamin D receptors. Increased intestinal calcium transport can be the first step leading to a rise in blood calcium levels (and eventually to hypercalcemia). […] The values in the table represent the relative increase in Ca^2 + influx (the value for 1α,25-DHCC is arbitrarily fixed at 100).

rabbit kidney cells = assay: Rabbit kidney cell assay (45Ca2+ reabsorption); assay type: cell-based; conditions: rabbit renal cell cultures; for increase in Ca^2+ -reabsorption: 10^-9 M
Method: Together with the intestine and the bone, the kidney is one of the major target organs of 1α,25-DHCC. The kidney plays an extremely important role in calcium homeostasis, since about 98% of the calcium has to be reabsorbed in the kidneys in order to prevent calcium loss and hypocalcemia. The vitamin D compounds according to the invention are dissolved in ethanol and tested in the rabbit kidney cell assay. In this assay, reabsorption of ^45 Ca^2+ is measured in monolayers of rabbit kidney cells. The cells are isolated by immunodissection of connecting tubules with the aid of monoclonal antibodies. […] The values in the Table represent the increase in Ca^2+ -reabsorption in mmol/cm^2 /h.

[4] = target: T1, human vitamin D binding protein (DBP) (Homo sapiens, UniProt P02774); assay: Affinity to vitamin D binding protein (competition with 3H-1α,25-DHCC); conditions: DBP purified from total human serum; 10^-11 to 2.5×10^-6 M; FIGS. 1 and 2
T1 sequence (P02774 17-474): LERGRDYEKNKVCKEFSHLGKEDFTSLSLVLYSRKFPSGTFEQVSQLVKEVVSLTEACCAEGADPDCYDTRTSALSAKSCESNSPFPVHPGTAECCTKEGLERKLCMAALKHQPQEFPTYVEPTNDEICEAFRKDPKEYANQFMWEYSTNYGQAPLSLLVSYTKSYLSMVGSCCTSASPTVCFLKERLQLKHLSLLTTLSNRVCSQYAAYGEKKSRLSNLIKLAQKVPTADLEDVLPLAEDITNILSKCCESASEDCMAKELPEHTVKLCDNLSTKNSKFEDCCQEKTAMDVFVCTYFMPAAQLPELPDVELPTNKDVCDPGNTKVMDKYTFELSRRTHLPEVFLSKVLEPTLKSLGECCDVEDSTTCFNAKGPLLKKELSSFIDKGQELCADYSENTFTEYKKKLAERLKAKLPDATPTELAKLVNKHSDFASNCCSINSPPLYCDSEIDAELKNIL
Method: Vitamin D binding protein (DBP) is the specific carrier for vitamin D and its metabolites in blood. The biological activity of vitamin D compounds depends on their binding to DBP, because strong binding to DBP will reduce the intracellular access to the VDR. Binding to the DBP may also influence the half-life of the vitamin D derivatives in circulation. Weak binders are rapidly matabolized, which is a favourable aspect in topical application. In the assay DBP is incubated with ^3 H-1α,25-DHCC and 1α,25-DHCC or with several vitamin D compounds according to the invention. To this purpose, the vitamin compounds are dissolved in ethanol in concentrations ranging from 10^-11 to 2.5×10^-6 M. The percentage bound/unbound ^3 H-1α,25-DHCC is then calculated. DBP is purified from total human serum. The results are shown in the appended FIGS. 1 and 2. FIGS. 1 and 2 show the binding of vitamin D compounds to human vitamin D binding protein. [^3 H]1α,25(OH)2 D3 =^3 H-1α,25-DHCC; in both Figures .circle-solid.=1α,25-DHCC (known compound); in FIG. 1 .tangle-solidup.=compound 13 and .gradient.=compound 14; in FIG. 2 Δ=compound 11.

[5] = target: T2, calf thymus intracellular vitamin D receptor (VDR) (Bos taurus, UniProt Q28037); assay: Affinity to intracellular vitamin D receptor (displacement of 3H-1α,25-DHCC); assay type: binding; conditions: 10^-13 to 10^-7 M
T2 construct: 3H-1α,25-DHCC displacement
T2 sequence (Q28037 1-426): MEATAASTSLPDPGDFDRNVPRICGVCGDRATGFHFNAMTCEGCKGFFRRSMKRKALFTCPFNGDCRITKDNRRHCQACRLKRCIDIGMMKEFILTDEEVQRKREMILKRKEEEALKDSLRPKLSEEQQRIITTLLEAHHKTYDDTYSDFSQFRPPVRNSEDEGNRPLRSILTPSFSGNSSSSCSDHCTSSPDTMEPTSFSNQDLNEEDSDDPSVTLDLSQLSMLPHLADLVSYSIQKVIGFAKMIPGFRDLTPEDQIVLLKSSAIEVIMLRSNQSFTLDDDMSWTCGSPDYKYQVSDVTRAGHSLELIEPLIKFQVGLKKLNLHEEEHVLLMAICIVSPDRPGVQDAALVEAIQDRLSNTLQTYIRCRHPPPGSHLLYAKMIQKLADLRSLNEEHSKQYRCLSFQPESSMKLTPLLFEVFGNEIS
Source text: In this assay, ^3 H-1α,25-dihydroxycholecalciferol (^3 H-1α,25-DHCC), which is specifically bound to the VDR, is replaced by the tested compounds. Especially the tested compounds 11, 13 and 14 have a very high VDR-affinity. A high VDR-affinity is indicative for biologically active substances.

Row | Structure (SMILES) | ratio relative to DHCC [1] | fraction (concentration for 50% NBT reduction in HL-60 cells / concentration for half-maximal increase in intestinal Ca^2+ transport) [1] | induction of differentiation and maturation of the HL-60 cells [2] | relative increase in Ca^2+ influx (1α,25-DHCC = 100) ([3]; experiment 1) | relative increase in Ca^2+ influx (1α,25-DHCC = 100) ([3]; experiment 2) | increase in Ca^2+ -reabsorption (rabbit kidney cells) | binding to the DBP, compared to the known 1α,25-DHCC [4] | selectivity of action / better ratio than 1α,25-DHCC (fold) [1] | differentiation in the cytological test (non-specific esterase and May-Grunwald Giemsa) [2] | concentration range of optimum effect [2] | NBT-reduction inducing capacity relative to 1α,25-DHCC (fold stronger) [2] | stimulation of intestinal calcium absorption compared with 1α,25-DHCC [3] | VDR-affinity [5] | stimulation of renal Ca-reabsorption compared with compound 12 and 1α,25-DHCC (rabbit kidney cells)
1 | C=C1/C(=C\C=C2/CCC[C@]3(C)[C@@H]([C@H](C)CCCC(C)(C)O)CC[C@@H]23)C[C@@H](O)C[C@@H]1O [1α,25-DHCC, 1α,25-dihydroxycholecalciferol, reference compound] | 1.00 | 107 | induce differentiation and maturation | 100 | 100 | 13.4 mmol/cm^2 /h | – | – | – | – | – | – | – | –
2 | C=C1/C(=C\C=C2/CCC[C@@]3(C)C2CCC3[C@H](C)CCCC(O)(C2CC2)C2CC2)C[C@@H](O)C[C@@H]1O (stereo partly drawn) [Compound 11] | 0.13 | 14.4 | induce differentiation and maturation | 79 | – | 2.4 mmol/cm^2 /h | bind rather weakly | 8 × | good differentiators | 10^-8 to 10^-7 M | about 5 × | weaker stimulators | very high | weaker stimulators
3 | C=C1/C(=C\C=C2/CCC[C@@]3(C)C2CCC3[C@H](C)CCCC(O)(C(C)(C)C)C(C)(C)C)C[C@@H](O)C[C@@H]1O (stereo partly drawn) [Compound 12] | 0.28 | 29.7 | induce differentiation and maturation | 99 | – | 12.8 mmol/cm^2 /h | – | 4 × | – | – | about 5 × | – | – | –
4 | C=C1/C(=C\C=C2/CCC[C@@]3(C)C2CCC3[C@H](C)CCCC(O)(C(C)C)C(C)C)C[C@@H](O)C[C@@H]1O (stereo partly drawn) [Compound 13] | 0.02 | 2.5 | induce differentiation and maturation | – | 65 | -3.7 mmol/cm^2 /h | very weak binder | 50 × | good differentiators | 10^-8 to 10^-7 M | about 10 × | weaker stimulators | very high | weaker stimulators
5 | C=C1/C(=C\C=C2/CCC[C@@]3(CC)C2CCC3[C@H](C)CCCC(O)(C(C)C)C(C)C)C[C@@H](O)C[C@@H]1O (stereo partly drawn) [Compound 14] | 0.02 | 2.6 | induce differentiation and maturation | – | 78 | – | bind rather weakly | 50 × | – | – | about 10 × | weaker stimulators | very high | –
